Measured values as given in patent US20240101570A1 (AMGEN INC., priority 2020, published 2024).
pIC50: −log10 of the molar value.

Experiments:
HCT116 MTAP null cells = test: HCT116 MTAP null cell proliferation / viability (CellTiter-Glo, 6 days); type: cell-based; settings: HCT116-MTAP null, 144 h, HCT116 MTAP null cells, 6 days, CellTiter-Glo; read-out: HCT-116 MTAP null IC50
Procedure, shortened: (§1)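 IC50 values derive from sigmoidal dose-response fits, some with Hill slope fixed at −1 and top constrained to 100%, others from 4-parameter logistic models. They reflect CellTiter-Glo viability after 6 days of compound exposure at up to 10 or 50 μM.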

HCT116 WT cells = test: HCT116 WT cell proliferation / viability (CellTiter-Glo, 6 days); type: cell-based; settings: Homo sapiens, HCT-116, 144 h, HCT116 WT cells, 6 days, CellTiter-Glo; read-out: HCT-116 WT IC50
Procedure, shortened: as §1

pIC50 (HCT116 MTAP null cells) | pIC50 (HCT116 WT cells) | Structure (SMILES)
6.95 | 5.32 | CCN(C(=O)c1cc2c3c(c(N)nc2cn1)COC3)[C@H](C)c1ccc(C(F)(F)F)nn1 [Example 763, 4-amino-N-ethyl-N-((1R)-1-(6-(trifluoromethyl)-3-pyridazinyl)ethyl)-1,3-dihydrofuro[3,4-c][1,7]naphthyridine-8-carboxamide]
6.94 | 5.12 | Cc1ccc(CN(C)C(=O)c2cc3c(cc2F)nc(N)c2cnn(C)c23)nc1 [Example 769, 4-amino-7-fluoro-N,1-dimethyl-N-((5-methyl-2-pyridinyl)methyl)-1H-pyrazolo[4,3-c]quinoline-8-carboxamide]
6.60 | 4.71 | CN(Cc1ccc(F)cn1)C(=O)c1cc2c(cc1F)nc(N)c1cnn(C)c12 [Example 770, 4-amino-7-fluoro-N-((5-fluoro-2-pyridinyl)methyl)-N,1-dimethyl-1H-pyrazolo[4,3-c]quinoline-8-carboxamide]
6.40 | 4.51 | CN(Cc1ccc(F)nc1F)C(=O)c1cc2c(cc1F)nc(N)c1cnn(C)c12 [Example 771, 4-amino-N-((2,6-difluoro-3-pyridinyl)methyl)-7-fluoro-N,1-dimethyl-1H-pyrazolo[4,3-c]quinoline-8-carboxamide]
6.13 | 4.39 | C[C@H](c1cnc(C(F)(F)F)cn1)N(C)C(=O)c1ccc2nc(N)c3c(c2c1)COC3 [Example 774, 4-amino-N-methyl-N-((1R)-1-(5-(trifluoromethyl)-2-pyrazinyl)ethyl)-1,3-dihydrofuro[3,4-c]quinoline-8-carboxamide]
6.82 | < 5.00 | C[C@H](c1cnc(C(F)(F)F)cn1)N(C)C(=O)c1ccc2nc(N)c3cnn(C)c3c2c1 [Example 776, 4-amino-N,1-dimethyl-N-((1R)-1-(5-(trifluoromethyl)-2-pyrazinyl)ethyl)-1H-pyrazolo[4,3-c]quinoline-8-carboxamide]
7.60 | 5.86 | CCN(C(=O)c1ccc2nc(N)c3c(c2c1)CO[C@@H]3C)[C@H](C)c1ccc(C(F)(F)F)cn1 [Example 777, (3R)-4-amino-N-ethyl-3-methyl-N-((1R)-1-(5-(trifluoromethyl)-2-pyridinyl)ethyl)-1,3-dihydrofuro[3,4-c]quinoline-8-carboxamide]
7.31 | 5.58 | CCN(C(=O)c1ccc2nc(N)c3c(c2c1)CO[C@@H]3C)[C@H](C)c1ccc(C(F)(F)F)nn1 [Example 778, (3R)-4-amino-N-ethyl-3-methyl-N-((1R)-1-(6-(trifluoromethyl)-3-pyridazinyl)ethyl)-1,3-dihydrofuro[3,4-c]quinoline-8-carboxamide]
6.44 | 4.54 | C[C@H](c1ccc(C(F)(F)F)nn1)N(C)C(=O)c1cc2c(cc1F)nc(N)c1c2cnn1C [Example 779, 4-amino-7-fluoro-N,3-dimethyl-N-((1R)-1-(6-(trifluoromethyl)-3-pyridazinyl)ethyl)-3H-pyrazolo[3,4-c]quinoline-8-carboxamide]
7.66 | 5.93 | C[C@H](c1cnc(C(F)(F)F)cn1)N(C)C(=O)c1cc2c(cc1F)nc(N)c1cnn(C)c12 [Example 780, 4-amino-7-fluoro-N,1-dimethyl-N-((1R)-1-(5-(trifluoromethyl)-2-pyrazinyl)ethyl)-1H-pyrazolo[4,3-c]quinoline-8-carboxamide]
7.10 | 5.11 | CN(Cc1ccc(C(F)(F)F)nc1F)C(=O)c1cc2c(cc1F)nc(N)c1cnn(C)c12 [Example 782, 4-amino-7-fluoro-N-((2-fluoro-6-(trifluoromethyl)-3-pyridinyl)methyl)-N,1-dimethyl-1H-pyrazolo[4,3-c]quinoline-8-carboxamide]
6.90 | 5.13 | C[C@H](c1ccc(C(F)(F)C(F)(F)F)cc1)N(C)C(=O)c1cc2c(cn1)nc(N)c1c2cnn1C [Example 786, 4-amino-N,3-dimethyl-N-((1R)-1-(4-(pentafluoroethyl)phenyl)ethyl)-3H-pyrazolo[3,4-c][1,7]naphthyridine-8-carboxamide]
6.06 | 5.05 | C[C@@H](c1ccc(C(F)(F)C(F)(F)F)cc1)N(C)C(=O)c1cc2c(cc1F)nc(N)c1cnn(C)c12 [Example 787, 4-amino-7-fluoro-N,1-dimethyl-N-((1S)-1-(4-(pentafluoroethyl)phenyl)ethyl)-1H-pyrazolo[4,3-c]quinoline-8-carboxamide]
8.10 | 6.87 | C[C@H](c1ccc(C(F)(F)C(F)(F)F)cc1)N(C)C(=O)c1cc2c(cc1F)nc(N)c1cnn(C)c12 [Example 788, 4-amino-7-fluoro-N,1-dimethyl-N-((1R)-1-(4-(pentafluoroethyl)phenyl)ethyl)-1H-pyrazolo[4,3-c]quinoline-8-carboxamide]
7.08 | 5.16 | CN(Cc1ccc(-c2cnn(C(F)(F)F)c2)cn1)C(=O)c1cc2c(cc1F)nc(N)c1cnn(C)c12 [Example 789, 4-amino-7-fluoro-N,1-dimethyl-N-((5-(1-(trifluoromethyl)-1H-pyrazol-4-yl)-2-pyridinyl)methyl)-1H-pyrazolo[4,3-c]quinoline-8-carboxamide]
6.11 | 4.33 | Cn1ncc2c(N)nc3ccc(C(=O)N(Cc4ccc(C(F)(F)F)nn4)C4CC4)cc3c21 [Example 790, 4-amino-N-cyclopropyl-1-methyl-N-((6-(trifluoromethyl)-3-pyridazinyl)methyl)-1H-pyrazolo[4,3-c]quinoline-8-carboxamide]
7.96 | 6.47 | CN(Cc1ccc(C(F)(F)F)cn1)C(=O)c1cc2c(cc1Cl)nc(N)c1cnn(C)c12 [Example 791, 4-amino-7-chloro-N,1-dimethyl-N-((5-(trifluoromethyl)-2-pyridinyl)methyl)-1H-pyrazolo[4,3-c]quinoline-8-carboxamide]

Further lines, the compound ahead of its results:

Structure (SMILES) | pIC50 (HCT116 MTAP null cells) | pIC50 (HCT116 WT cells)
CCN(C(=O)c1cc2c3c(c(N)nc2cc1F)COC3)[C@H](C)c1ccc(C(F)(F)F)cn1 [Example 762, 4-amino-N-ethyl-7-fluoro-N-((1R)-1-(5-(trifluoromethyl)-2-pyridinyl)ethyl)-1,3-dihydrofuro[3,4-c]quinoline-8-carboxamide] | 7.59 | 6.21
CCOc1ccc(CN(CC2CC2)C(=O)c2cc3c(cc2F)nc(N)c2c3cnn2C)nn1 [Example 765, 4-amino-N-(cyclopropylmethyl)-N-((6-ethoxy-3-pyridazinyl)methyl)-7-fluoro-3-methyl-3H-pyrazolo[3,4-c]quinoline-8-carboxamide] | 7.31 | 5.70
CCOc1ccc(CN(CC2CC2)C(=O)c2ccc3nc(N)c4c(c3c2)CO[C@@H]4C)nn1 [Example 766, (3R)-4-amino-N-(cyclopropylmethyl)-N-((6-ethoxy-3-pyridazinyl)methyl)-3-methyl-1,3-dihydrofuro[3,4-c]quinoline-8-carboxamide] | 7.21 | 5.72
CCN(C(=O)c1cc2c3c(c(N)nc2cn1)COC3)[C@@H](c1ccc(C(F)(F)F)nn1)C1CC1 [Example 767, 4-amino-N-((R)-cyclopropyl(6-(trifluoromethyl)-3-pyridazinyl)methyl)-N-ethyl-1,3-dihydrofuro[3,4-c][1,7]naphthyridine-8-carboxamide] | 5.64 | < 4.30
C[C@@H](NC(=O)c1ccc2nc(N)c3c(c2c1)CO[C@@H]3C)c1ccc(C(F)(F)F)cn1 [Example 768, (3R)-4-amino-3-methyl-N-((1R)-1-(5-(trifluoromethyl)-2-pyridinyl)ethyl)-1,3-dihydrofuro[3,4-c]quinoline-8-carboxamide] | 5.37 | < 4.30
CCN(C(=O)c1cc2c3c(c(N)nc2cn1)COC3)[C@H](C)c1ccc(C(F)F)cn1 [Example 773, 4-amino-N-((1R)-1-(5-(difluoromethyl)-2-pyridinyl)ethyl)-N-ethyl-1,3-dihydrofuro[3,4-c][1,7]naphthyridine-8-carboxamide] | 6.97 | 5.58
CCN(C(=O)c1ccc2nc(N)c3c(c2c1)CO[C@@H]3C)[C@H](C)c1ccc(C(F)F)cn1 [Example 775, (3R)-4-amino-N-((1R)-1-(5-(difluoromethyl)-2-pyridinyl)ethyl)-N-ethyl-3-methyl-1,3-dihydrofuro[3,4-c]quinoline-8-carboxamide] | 7.48 | 5.57
CCN(C(=O)c1cc2c3c(c(N)nc2cc1F)COC3)[C@H](C)c1ccc(C(F)(F)F)nn1 [Example 781, 4-amino-N-ethyl-7-fluoro-N-((1R)-1-(6-(trifluoromethyl)-3-pyridazinyl)ethyl)-1,3-dihydrofuro[3,4-c]quinoline-8-carboxamide] | 7.43 | 5.88
CCN(C(=O)c1ccc2nc(N)c3c(c2c1)COC3)[C@@H](c1ccc(C(F)(F)F)nn1)C1CC1 [Example 783, 4-amino-N-((R)-cyclopropyl(6-(trifluoromethyl)-3-pyridazinyl)methyl)-N-ethyl-1,3-dihydrofuro[3,4-c]quinoline-8-carboxamide] | 6.06 | 4.79
CCN(C(=O)c1cc2c3c(c(N)nc2cc1F)[C@@H](C)OC3)[C@H](C)c1ccc(C(F)(F)F)nn1 [Example 784, (3R)-4-amino-N-ethyl-7-fluoro-3-methyl-N-((1R)-1-(6-(trifluoromethyl)-3-pyridazinyl)ethyl)-1,3-dihydrofuro[3,4-c]quinoline-8-carboxamide] | 7.66 | 6.22
CCN(C(=O)c1cc2c3c(c(N)nc2cc1F)[C@H](C)OC3)[C@H](C)c1ccc(C(F)(F)F)nn1 [Example 785, (3S)-4-amino-N-ethyl-7-fluoro-3-methyl-N-((1R)-1-(6-(trifluoromethyl)-3-pyridazinyl)ethyl)-1,3-dihydrofuro[3,4-c]quinoline-8-carboxamide] | 6.07 | 4.70
